Measurements from patent US20230227466A1, “SUBSTITUTED THIENOPYRIMIDINES THAT INTERACT WITH THE RAS SUPERFAMILY FOR THE TREATMENT OF CANCERS, INFLAMMATORY DISEASES, RASOPATHIES, AND FIBROTIC DISEASE” (SHY Therapeutics, LLC, priority 2020, published 2023).

Columns and labels:
[1] = system: MIA-PaCa-2 pancreatic cancer cell line (KRAS G12C); assay: Cell proliferation assay (CellTiter 96 Aqueous One); type: cell-based; settings: Homo sapiens; for inhibition at 10 µM: MIA PaCa-2, read-out: % inh cell proliferation (10 μM) in MIA PaCa-2
Method in brief: (§1)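 Read-out is MTS-based viability (CellTiter 96 Aqueous One) after 2–4 days of compound exposure at 37 °C in 10% FBS with 0.3% DMSO.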

[2] = system: Akt phosphorylation in Panc-1 cells; assay: Western AKT cell-based phosphorylation assay; design: species or system human; settings: at 10 μM, values in brackets < > are activation %, not inhibition
Method in brief: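 Panc-1 cells starved overnight in 0.5% FBS, exposed to compound at 10 μM (0.3% DMSO) for 6 h at 37° C, then stimulated with 1.5 ng/ml EGF for 15 min. Lysates probed by western blot with anti-phospho-Akt (Ser473), equal protein loading checked by Ponceau S.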

[3] = system: SW-620 colorectal cancer cell line (KRAS G12V); assay: Cell proliferation assay (CellTiter 96 Aqueous One); type: cell-based; settings: Homo sapiens; SW-620, 2-4 days, 10% FBS
Method in brief: as §1

[4] = system: PANC-1 pancreatic cancer cell line (KRAS G12D); assay: as above; type: cell-based; settings: Homo sapiens; PANC-1, 2-4 days, 10% FBS
Method in brief: as §1

SMILES | IC50 ([1]; MIA PaCa-2, MIA PaCa-2) | IC50 [3] | IC50 ([1]; MIA PaCa-2, MIA-PaCa-2, 2-4 days, 10% FBS) | IC50 [4] | inhibition at 10 µM [1] | % inh of AKT phosphorylation in PANC-1 [2]
Oc1nc(-c2cccnc2)nc2c(-c3ccccn3)csc12 [Compound 89, 7-(Pyridin-2-yl)-2-(pyridin-3-yl)thieno[3,2-d]pyrimidin-4-ol] | > 10 µM |  |  |  | 26 to 50% | 0 (0% inhibition)
COc1ccn2c(-c3nc(O)c4scc(-c5ccccn5)c4n3)ncc2c1 [Compound 85, 2-(7-Methoxyimidazo[1,5-a]pyridin-3-yl)-7-(pyridin-2-yl)thieno[3,2-d]pyrimidin-4-ol] | 5 to 10 µM |  |  |  | 51 to 75% | 0 (0% inhibition)
COCCn1c(-c2nc(O)c3scc(-c4ccccn4)c3n2)nc2ccccc21 [Compound 87, 2-(1-(2-Methoxyethyl)-1H-benzo[d]imidazol-2-yl)-7-(pyridin-2-yl)thieno[3,2-d]pyrimidin-4-ol] | 5 to 10 µM | < 0.4 µM | > 3 µM | < 0.4 µM | 76 to 100% | <A>
Cn1ccc(-c2nc(O)c3scc(-c4ccccn4)c3n2)n1 [Compound 90, 2-(1-Methyl-1H-pyrazol-3-yl)-7-(pyridin-2-yl)thieno[3,2-d]pyrimidin-4-ol] | > 10 µM |  |  |  | 1 to 25% | 0 (0% inhibition)
COc1ccc2cnc(-c3nc(O)c4scc(-c5ccccn5)c4n3)n2c1 [Compound 86, 2-(6-Methoxyimidazo[1,5-a]pyridin-3-yl)-7-(pyridin-2-yl)thieno[3,2-d]pyrimidin-4-ol] | 5 to 10 µM |  |  |  | 51 to 75% | B (26-50% inhibition)
Oc1nc(-c2ccncn2)nc2c(-c3ccccn3)csc12 [Compound 88, 7-(Pyridin-2-yl)-2-(pyrimidin-4-yl)thieno[3,2-d]pyrimidin-4-ol] | > 10 µM |  |  |  | 26 to 50% | <B>

The next lines start with results.

IC50 ([1]; MIA PaCa-2, MIA PaCa-2) | IC50 [3] | IC50 ([1]; MIA PaCa-2, MIA-PaCa-2, 2-4 days, 10% FBS) | IC50 [4] | SMILES | inhibition at 10 µM [1] | % inh of AKT phosphorylation in PANC-1 [2]
> 10 µM |  |  |  | COc1nc(-c2nccn2C)nc2c(-c3ncccc3F)csc12 [Compound 95, 7-(3-Fluoropyridin-2-yl)-4-methoxy-2-(1-methyl-1H-imidazol-2-yl)thieno[3,2-d]pyrimidine] | 0% | 0 (0% inhibition)
5 to 10 µM |  |  |  | COCCn1ccnc1-c1nc(O)c2scc(-c3ccncc3)c2n1 [Compound 94, 2-(1-(2-Methoxyethyl)-1H-imidazol-2-yl)-7-(pyridin-4-yl)thieno[3,2-d]pyrimidin-4-ol] | 51 to 75% | 0 (0% inhibition)
> 10 µM |  |  |  | Cn1nccc1-c1nc(O)c2scc(-c3ccccn3)c2n1 [Compound 91, 2-(1-Methyl-1H-pyrazol-5-yl)-7-(pyridin-2-yl)thieno[3,2-d]pyrimidin-4-ol] | 0% | 0 (0% inhibition)
> 10 µM |  |  |  | Cc1cnc(-c2nc(O)c3scc(-c4ccccn4)c3n2)s1 [Compound 92, 2-(5-Methylthiazol-2-yl)-7-(pyridin-2-yl)thieno[3,2-d]pyrimidin-4-ol] | 0% | 0 (0% inhibition)
1 to 4.99 µM |  |  |  | CO[C@H]1CC[C@@H](Nc2nc(-c3nccn3C)nc3sc(-c4cn(C)cn4)c(-c4ccccc4)c23)C1 (racemic) [Example 3, Rac-N-((1R,3S)-3-methoxycyclopentyl)-2-(1-methyl-1H-imidazol-2-yl)-6-(1-methyl-1H-imidazol-4-yl)-5-phenylthieno[2,3-d]pyrimidin-4-amine] | 76 to 100% | 0 (0% inhibition)
1 to 4.99 µM |  |  |  | CO[C@H]1C[C@@H](Nc2nc(-c3nccn3C)nc3sc(-c4cn(C)cn4)c(-c4ccccc4)c23)C1 [Example 2, N-((1s,3s)-3-methoxycyclobutyl)-2-(1-methyl-1H-imidazol-2-yl)-6-(1-methyl-1H-imidazol-4-yl)-5-phenylthieno[2,3-d]pyrimidin-4-amine] | 51 to 75% | 0 (0% inhibition)
